Entries after “also recorded” stand apart in the source; their conditions may differ. *1 amine or outer side, *2 acyl side, *3 side chain or, on linkers, in order; H or OH if unused. [ ]: non-standard residue; d: D form. The star is where a group is joined. βAsp = O=C(O)[C@H](CC(=O)[*:2])N[*:1]; Hexenoyl(3E) = CC/C=C/CC(=O)*
Tests used:
[1] = tested on: GH secretion; test: GH response in female Sprague-Dawley rats (plasma GH ELISA); assay type: in vivo, rat; conditions: for AUC(0-60 min) of GH, fold lower than TH9507 / Cmax of GH, fold lower than TH9507 / GH secretion in rats (in words) / AUC(0-60min) of GH / TMAX of GH: female rats; for AUC(0-60 min) of GH, fold lower than TH9507 / Cmax of GH, fold lower than TH9507 / GH secretion in rats (in words): 10 μg/rat; for AUC(0-60min) of GH / TMAX of GH: 10 μg/rat subcutaneous, 5% mannitol
Method: The reporter gene assay was performed on baby hamster kidney (BHK) cells stably expressing the human GRF receptor and a cAMP-inducible alkaline phosphatase reporter gene; the peptides were tested at concentrations from 1 pM to 10 μM. Acute GH response was measured in blood samples obtained from female rats that were injected with 10 μg/rat peptides in 5% mannitol.
Sprague-Dawley rats (female, 250-300 g) were obtained from Charles River Inc. The animals were kept in groups of 4 rats per cage and were maintained on standard laboratory chow in 12:12 light:dark cycle.
On the day of the experiment, the animals were anesthetized with 2.5% isoflurane. A mid-section opening was made in the neck to expose the carotid artery. The carotid artery was cannulated with polypropylene tube (PE-50) for blood withdrawal. The rats were subcutaneously injected with the peptides (10 μg/rat) dissolved in formulation 5 (20 mM Sodium Acetate, 5% D-mannitol pH 5 (adjusted with AcOH). Blood samples (400 μL) were collected at pre-dose and at 5, 10, 15, 30 and 60 minutes after the injection into microtainer tubes containing K3EDTA and 25 μl of acidified Hank's buffered salt solution (AHBSS). The samples were immediately centrifuged in a microfuge for 2 minutes and the plasma was collected into screwcap Eppendorf™ tubes and quickly frozen in liquid nitrogen. The samples were kept at −80° C.
Rat plasma samples were thawed on ice, vortexed briefly to mix the contents and centrifuged at 9,000 RPM for 2 min at 4° C. GH levels were determined using the Rat/Mouse Growth Hormone ELISA kit from Millipore® (Cat. #EZRMGH-45K). Samples were diluted 10-fold with the assay buffer and 10 μl of the diluted samples were added along with 90 μl of assay buffer to the ELISA plate. The remainder of the assay was performed according to the manufacturer's protocol.
The standard curve was plotted using the 4-parameter logistic equation using GraphPad Prism™ software and was used to determine the GH concentration of plasma samples. The data were analyzed using one-way analysis of variance. Bonferroni's test was used to make comparisons among different treatments.

[2] = target: T1, human GRF receptor (Homo sapiens, UniProt Q02643); test: Reporter gene assay in BHK cells (cAMP-inducible alkaline phosphatase); assay type: cell-based; conditions: for Emax / SNR (signal to noise ratio) / EC50: 24 h; for EC50: peptides 10^-5 M to 10^-12 M
T1 construct: expressed in transfected cells
T1 sequence (Q02643 23-423): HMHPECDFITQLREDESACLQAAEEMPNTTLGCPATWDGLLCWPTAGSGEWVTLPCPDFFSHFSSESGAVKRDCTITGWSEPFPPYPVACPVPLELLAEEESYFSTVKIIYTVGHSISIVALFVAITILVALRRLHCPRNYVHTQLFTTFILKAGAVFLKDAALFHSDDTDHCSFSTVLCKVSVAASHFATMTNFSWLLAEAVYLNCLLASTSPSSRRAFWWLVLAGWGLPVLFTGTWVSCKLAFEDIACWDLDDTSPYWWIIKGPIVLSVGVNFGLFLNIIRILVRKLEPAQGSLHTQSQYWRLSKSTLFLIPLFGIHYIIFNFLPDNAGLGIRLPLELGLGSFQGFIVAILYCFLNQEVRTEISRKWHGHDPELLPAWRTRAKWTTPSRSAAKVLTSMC
Method: BHK cells stably transfected with the human GRF receptor and an alkaline phosphatase reporter gene were plated in 96-well plates at 5×10^4 cells/well and incubated overnight. The next day, cells were washed twice with PBS and maintained for 10-30 min. in assay buffer (DMEM without phenol red, 20 mM HEPES and 1% heat-inactivated fetal bovine serum (FBS)). Peptides from 10^−5 M to 10^−12 M were added to the cells and incubated for 24 h. The alkaline phosphatase level in the culture supernatants were performed using the Alkaline Phosphatase detection kit from Invitrogen® (cat. #T1017).

[3] = Formation of TH0601 from TH05111 or tesamorelin with and without HP-β-CD (FIG. 19); assay type: physicochemical; conditions: 8 mg/mL peptide, 10% HP-β-CD vs 5% mannitol, pH 6
Method: Isomerization of Asp^8 in the structure of TH05111 leads to formation of the tesamorelin degradant TH0601, which makes it possible to monitor degradation by using the same chromatographic conditions as for tesamorelin.
The comparison of the kinetics of TH0601 formation in the solutions containing 8 mg/mL of TH05111 or tesamorelin with and without HP-β-CD is shown in FIG. 19.

| EC50 fold higher than TH9507 [2] [fold] | Emax [2] [%] | SNR (signal to noise ratio) [2] | EC50 [2] [nM] | Isomerization of the Asp^8 residue in the presence of HP-β-CD [3] | Compound | AUC(0-60 min) of GH, fold lower than TH9507 [1] [fold] | Cmax of GH, fold lower than TH9507 [1] [fold] | GH secretion in rats (in words) [1] | AUC(0-60min) of GH [1] [ng·min/mL] | TMAX of GH [1] [min] | In vitro potency compared to TH9507 (in words) [2] | GH-releasing activity in vivo compared to parent molecule ([1]; relative to tesamorelin, FIG. 1) [%] |
| --- | --- | --- | --- | --- | --- | --- | --- | --- | --- | --- | --- | --- |
| 500 | 120 ± 23.5 | 26.9 | 30 ± 30.4 | – | {Hexenoyl(3E)}-YADAIFT[βAsp]SYRKVLGQLSARKLLQDIMSRQQGESNQERGARARL-NH2 [TH0601, β-Asp^8 tesamorelin] | 12.4 | 14.0 | biologically inactive | 1533 ± 734 | 5 | – | – |
| – | – | – | – | – | CC/C=C/CC(=O)N[C@@H](Cc1ccc(O)cc1)C(=O)N[C@@H](C)C(=O)N[C@@H](CC(=O)O)C(=O)N[C@@H](C)C(=O)N[C@H](C(=O)N[C@@H](Cc1ccccc1)C(=O)N[C@H](C(=O)N[C@@H](CC(N)=O)C(=O)N[C@@H](CO)C(=O)N[C@@H](Cc1ccc(O)cc1)C(=O)N[C@@H](CCCNC(=N)N)C(=O)N[C@@H](CCCCN)C(=O)N[C@H](C(=O)N[C@@H](CC(C)C)C(=O)NCC(=O)N[C@@H](CCC(N)=O)C(=O)N[C@@H](CC(C)C)C(=O)N[C@@H](CO)C(=O)N[C@@H](C)C(=O)N[C@@H](CCCNC(=N)N)C(=O)N[C@@H](CCCCN)C(=O)N[C@@H](CC(C)C)C(=O)N[C@@H](CC(C)C)C(=O)N[C@@H](CCC(N)=O)C(=O)N[C@@H](CC(=O)O)C(=O)N[C@H](C(=O)N[C@@H](CC[S+](C)[O-])C(=O)N[C@@H](CO)C(=O)N[C@@H](CCCNC(=N)N)C(=O)N[C@@H](CCC(N)=O)C(=O)N[C@@H](CCC(N)=O)C(=O)NCC(=O)N[C@@H](CCC(=O)O)C(=O)N[C@@H](CO)C(=O)N[C@@H](CC(N)=O)C(=O)N[C@@H](CCC(N)=O)C(=O)N[C@@H](CCC(=O)O)C(=O)N[C@@H](CCCNC(=N)N)C(=O)NCC(=O)N[C@@H](C)C(=O)N[C@@H](CCCNC(=N)N)C(=O)N[C@@H](C)C(=O)N[C@@H](CCCNC(=N)N)C(=O)N[C@@H](CC(C)C)C(N)=O)[C@@H](C)CC)C(C)C)[C@@H](C)O)[C@@H](C)CC (some centres unmarked) [TH0286, N-Hex-hGRF[1-44]Met[O]27 amide] | – | – | not significantly different | 14751 ± 5745 | 10 | comparable to TH9507 | – |
| 71 | 116 ± 25.8 | 25.9 | – | – | CC/C=C/CC(=O)N[C@@H](Cc1ccc(O)cc1)C(=O)N[C@@H](C)C(=O)N[C@@H](CC(=O)N[C@@H](C)C(=O)N[C@H](C(=O)N[C@@H](Cc1ccccc1)C(=O)N[C@H](C(=O)N[C@@H](CC(N)=O)C(=O)N[C@@H](CO)C(=O)N[C@@H](Cc1ccc(O)cc1)C(=O)N[C@@H](CCCNC(=N)N)C(=O)N[C@@H](CCCCN)C(=O)N[C@H](C(=O)N[C@@H](CC(C)C)C(=O)NCC(=O)N[C@@H](CCC(N)=O)C(=O)N[C@@H](CC(C)C)C(=O)N[C@@H](CO)C(=O)N[C@@H](C)C(=O)N[C@@H](CCCNC(=N)N)C(=O)N[C@@H](CCCCN)C(=O)N[C@@H](CC(C)C)C(=O)N[C@@H](CC(C)C)C(=O)N[C@@H](CCC(N)=O)C(=O)N[C@@H](CC(=O)O)C(=O)N[C@H](C(=O)N[C@@H](CCSC)C(=O)N[C@@H](CO)C(=O)N[C@@H](CCCNC(=N)N)C(=O)N[C@@H](CCC(N)=O)C(=O)N[C@@H](CCC(N)=O)C(=O)NCC(=O)N[C@@H](CCC(=O)O)C(=O)N[C@@H](CO)C(=O)N[C@@H](CC(N)=O)C(=O)N[C@@H](CCC(N)=O)C(=O)N[C@@H](CCC(=O)O)C(=O)N[C@@H](CCCNC(=N)N)C(=O)NCC(=O)N[C@@H](C)C(=O)N[C@@H](CCCNC(=N)N)C(=O)N[C@@H](C)C(=O)N[C@@H](CCCNC(=N)N)C(=O)N[C@@H](CC(C)C)C(N)=O)[C@@H](C)CC)C(C)C)[C@@H](C)O)[C@@H](C)CC)C(=O)O [TH0677, β-Asp^3 tesamorelin] | – | – | did not produce GH; also recorded: did not stimulate GH secretion; also recorded: biologically inactive | – | – | – | – |
| – | 114 ± 17 | 25.3 | 0.08 ± 0.02 | facilitated | {Hexenoyl(3E)}-YADAIFTDSYRKVLGQLSARKLLQDIMSRQQGESNQERGARARL-NH2 [TH05111, Asp^8 tesamorelin] | 2.9 | 2.2 | – | 6540 ± 2647 | 5 | comparable to TH9507; also recorded: equipotent | ~30 |
| – | 95.7 ± 8.1 | – | – | – | CC/C=C/CC(=O)N[C@@H](Cc1ccc(O)cc1)C(=O)N[C@@H](C)C(=O)N[C@H]1CC(=O)N([C@@H](C)C(=O)N[C@H](C(=O)N[C@@H](Cc2ccccc2)C(=O)N[C@H](C(=O)N[C@@H](CC(N)=O)C(=O)N[C@@H](CO)C(=O)N[C@@H](Cc2ccc(O)cc2)C(=O)N[C@@H](CCCNC(=N)N)C(=O)N[C@@H](CCCCN)C(=O)N[C@H](C(=O)N[C@@H](CC(C)C)C(=O)NCC(=O)N[C@@H](CCC(N)=O)C(=O)N[C@@H](CC(C)C)C(=O)N[C@@H](CO)C(=O)N[C@@H](C)C(=O)N[C@@H](CCCNC(=N)N)C(=O)N[C@@H](CCCCN)C(=O)N[C@@H](CC(C)C)C(=O)N[C@@H](CC(C)C)C(=O)N[C@@H](CCC(N)=O)C(=O)N[C@@H](CC(=O)O)C(=O)N[C@H](C(=O)N[C@@H](CCSC)C(=O)N[C@@H](CO)C(=O)N[C@@H](CCCNC(=N)N)C(=O)N[C@@H](CCC(N)=O)C(=O)N[C@@H](CCC(N)=O)C(=O)NCC(=O)N[C@@H](CCC(=O)O)C(=O)N[C@@H](CO)C(=O)N[C@@H](CC(N)=O)C(=O)N[C@@H](CCC(N)=O)C(=O)N[C@@H](CCC(=O)O)C(=O)N[C@@H](CCCNC(=N)N)C(=O)NCC(=O)N[C@@H](C)C(=O)N[C@@H](CCCNC(=N)N)C(=O)N[C@@H](C)C(=O)N[C@@H](CCCNC(=N)N)C(=O)N[C@@H](CC(C)C)C(N)=O)[C@@H](C)CC)C(C)C)[C@@H](C)O)[C@@H](C)CC)C1=O [TH1063, Asu^3 tesamorelin] | – | – | – | – | – | – | – |
| – | 100 ± 11.3 | 22.3 | – | – | CC/C=C/CC(=O)N[C@@H](Cc1ccc(O)cc1)C(=O)N[C@@H](C)C(=O)N[C@@H](CC(=O)O)C(=O)N[C@@H](C)C(=O)N[C@H](C(=O)N[C@@H](Cc1ccccc1)C(=O)N[C@H](C(=O)N[C@@H](CC(N)=O)C(=O)N[C@@H](CO)C(=O)N[C@@H](Cc1ccc(O)cc1)C(=O)N[C@@H](CCCNC(=N)N)C(=O)N[C@@H](CCCCN)C(=O)N[C@H](C(=O)N[C@@H](CC(C)C)C(=O)NCC(=O)N[C@@H](CCC(N)=O)C(=O)N[C@@H](CC(C)C)C(=O)N[C@@H](CO)C(=O)N[C@@H](C)C(=O)N[C@@H](CCCNC(=N)N)C(=O)N[C@@H](CCCCN)C(=O)N[C@@H](CC(C)C)C(=O)N[C@@H](CC(C)C)C(=O)N[C@@H](CCC(N)=O)C(=O)N[C@@H](CC(=O)O)C(=O)N[C@H](C(=O)N[C@@H](CCSC)C(=O)N[C@@H](CO)C(=O)N[C@@H](CCCNC(=N)N)C(=O)N[C@@H](CCC(N)=O)C(=O)N[C@@H](CCC(N)=O)C(=O)NCC(=O)N[C@@H](CCC(=O)O)C(=O)N[C@@H](CO)C(=O)N[C@@H](CC(N)=O)C(=O)N[C@@H](CCC(N)=O)C(=O)N[C@@H](CCC(=O)O)C(=O)N[C@@H](CCCNC(=N)N)C(=O)NCC(=O)N[C@@H](C)C(=O)N[C@@H](CCCNC(=N)N)C(=O)N[C@@H](C)C(=O)N[C@@H](CCCNC(=N)N)C(=O)N[C@@H](CC(C)C)C(N)=O)[C@@H](C)CC)C(C)C)[C@@H](C)O)[C@@H](C)CC [TH9507, [trans-3-hexenoyl]hGRF (1-44) amide] | – | – | – | 18953 ± 6317 | 10 | – | – |

— patent publication US8871713B2, “Formulations of growth hormone releasing factor (GRF) molecules with improved stability” (Theratechnologies Inc., priority 2013, dated 2014)
